# According to patent publication US5534495A, “Treatment of non-HIV neuropathic pain syndromes” (Advanced Peptides and Biotechnology Sciences, priority 1995, dated 1996):
# Legend:
# [1] = tested on: dissociated hippocampal and/or cortical neurons; assay: Neuronal survival assay in vitro (5-day exposure); assay type: cell-based, rat
# Description: (§1) The neuroprotective and neurotropic actions of the herein defined peptides were determined by their effects upon fetal rodent neuronal cultures. […] The dissociated cells were be plated at low density (50,000 cells/35-mm dish) upon confluent layers of astrocytes. The astrocyte feeder layers were prepared from the hippocampi and/or cortices of 2-day-old rat pups. Following treatment with 0,125% trypsin for 15 min, the tissue was triturated and plated at 2.5×10^5 cells into 35-mm tissue culture dishes coated with Vintrogen (Collagen, Palo Alto) and poly-L-lysine (M1 30-70K 10^-5 M borate, pH 8.4, Sigma). The resulting feeder layers were grown in Eagle's minimal essential medium (MEM, formula 82-0234, Gibco) with 10% fetal bovine serum until confluent (12-14 days); feeder layers prepared in this way were devoid of neurons and consisted predominantly of flat cells that were stained by antibodies to glia fibrillary acidic protein. When hippocampal and/or cortical neurons were added to the confluent feeder cultures, the medium was changed to 94% MEM, 5% horse serum (Gibco) and an added nutrient supplement containing insulin, transferrin, putrescine, selenium, corticosterone, progesterone and triiodothyronine. The resulting mixed neuron/glia cultures are treated one day after plating with 5'-fluoro-2'-deoxyuridine (15 μg/ml plus uridine, 35Mg/ml) to suppress the overgrowth of background cells. The neuronal cultures were allowed to grow for one week prior to the beginning of the experimental period and the medium was changed prior to adding peptides or controls.
# The test period of exposure to peptides was five days long, a period in which cell survivability can be accurately quantitated. […] Neurons were counted in 100 fields at predetermined stage coordinates. Cultures were coded and counted in a blinded fashion without knowledge of sample treatment. The total area counted was 50 mm^2. […] The maximum effect was detected at 0.1 nM, with approximately a 25% increase in cell survival compared to vehicle (Control) treated cultures.
# [2] = tested on: hippocampal neuronal cells; assay: Twenty one day survival of hippocampal neuronal cell cultures; assay type: cell-based, rat; settings: 0.1 nM
# Description: as §1, with “The resulting mixed neuron/glia cultures are treated one day after plating with 5'-fluoro-2'-deoxyuridine (15 μg/ml plus uridine, 35Mg/ml) to suppress the overgrowth of background cells. The neuronal cultures were allowed to grow for one week prior to the beginning of the experimental period and the medium was changed prior to adding peptides or controls.” left out
compound,measurement,setting,value
C[C@@H](N)C(=O)N[C@@H](CO)C(=O)N[C@H](C(=O)N[C@H](C(=O)N[C@H](C(=O)N[C@@H](CC(N)=O)C(=O)N[C@@H](Cc1ccc(O)cc1)C(=O)N[C@H](C(N)=O)[C@@H](C)O)[C@@H](C)O)[C@@H](C)O)[C@@H](C)O [DAPTA],effect on neuronal survival (neuronal cell count as percentage of Control),"[1]; 7-day-old neuronal cultures, five days exposure, vs vehicle control, FIG. 1",caused an increase in neuronal survival
same,increase in cell survival compared to vehicle (Control) treated cultures,"[1]; at 0.1 nM (maximum effect), five days",~25%
same,concentration of maximum effect on neuronal survival,"[1]; five days exposure, FIG. 1",0.1 nM
same,increase in cell survival compared to vehicle treated cultures,"[2]; after twenty one days, FIG. 2",4 fold
same,cell survival rate over the test period,"[2]; at all times during the twenty one day test period, vs vehicle",enhanced
